# Laboratory results taken from patent US10501467B2, “Fused tetra or penta-cyclic dihydrodiazepinocarbazolones as PARP inhibitors” (BeiGene, Ltd., priority 2011, dated 2019).
# Test system: PARP PARylation in HeLa cells
# Test: PARylation assay in HeLa cells
# Type: cell-based
# Settings: H2O2-provoked DNA damage
Molecule,EC50 [nM],EC50 (Homo sapiens) [nM]
"2-phenyl-2,3,5,10- tetrahydro- [1,2]diazepino[3,4, 5,6-def]carbazol- 6(1H)-one [Compound 5]",10.1,
"CC1CC2=NNC(=O)c3cccc4[nH]c(c2c34)C1 (stereo not drawn) [Compound 3, 2-methyl-2,3,5,10-tetrahydro-[1,2]diazepino[3,4,5,6-def]carbazol-6(1H)-one]",,4.6
"CC1(C)CCc2[nH]c3cccc4c3c2C1=NNC4=O [Compound 4, 3,3-dimethyl-2,3,5,10-tetrahydro-[1,2]diazepino[3,4,5,6-def]carbazol-6(1H)-one]",,46.7
"CC(C)C1CC2=NNC(=O)c3cccc4[nH]c(c2c34)C1 (stereo not drawn) [Compound 6, 2-isopropyl-2,3,5,10-tetrahydro-[1,2]diazepino[3,4,5,6-def]carbazol-6(1H)-one]",,3.9
"CN(C)c1ccc(C2CC3=NNC(=O)c4cc(F)cc5[nH]c(c3c45)C2)cc1 (stereo not drawn) [Compound 12, 2-(4-(dimethylamino)phe-nyl)-8-fluoro-2,3,5,10-tetrahydro-[1,2]diazepino[3,4,5,6-def]carbazol-6(1H)-one]",26.6,
"CN(C)c1ccc(C2CC3=NNC(=O)c4cccc5[nH]c(c3c45)C2)cc1 (stereo not drawn) [Compound 13, 2-(4-(dimethylamino)phe-nyl)-2,3,5,10-tetrahydro-[1,2]diazepino[3,4,5,6-def]carbazol-6(1H)-one]",,77.6
"O=C1NN=C2CN(C(=O)OCc3ccccc3)Cc3[nH]c4cccc1c4c32 [Compound 20, Benzyl 8-oxo-3,4,8,9-tetrahydro-2,4,9,10-tetraazacyclohepta[def]fluorene-2(1H)-carboxylate]",,7.3
"O=C1NN=C2CN(C(=O)OCc3ccccc3)Cc3[nH]c4cc(F)cc1c4c32 [Compound 21, Benzyl 6-fluoro-8-oxo-3,4,8,9-tetrahydro-2,4,9,10-tetraazacyclohepta[def]fluorene-2(1H)-carboxylate]",,14
"CN1N=C2CC(C)(C)Cc3c2c2c(cccc2n3C)C1=O [Compound 25, 2,2,5,10-tetramethyl-2,3,5,10-tetrahydro-[1,2]diazepino[3,4,5,6-def]carbazol-6(1H)-one]",,> 1000
"CC1(C)CC2=NNC(=O)c3cc(F)cc4[nH]c(c2c34)C1=O [Compound 26, 8-Fluoro-2,2-dimethyl-2,3-dihydro-[1,2]diazepino[3,4,5,6-def]carbazole-1,6(5H,10H)-dione]",,4.5
"CN(C)CCn1c2c3c4c(cccc41)C(=O)NN=C3CCC2 [Compound 37, 10-(2-(dimethylamino)ethyl)-2,3,5,10-tetrahydro-[1,2]diazepino[3,4,5,6-def]carbazol-6(1H)-one]",,22
"CN1CC2=NNC(=O)c3cccc4[nH]c(c2c34)C1 [Compound 44, 2-Methyl-2,3,4,9-tetrahydro-2,4,9,10-tetraazacyclohepta[def]fluoren-8(1H)-one]",,24
"CC(C)N1CC2=NNC(=O)c3cccc4[nH]c(c2c34)C1 [Compound 45, 2-Isopropyl-2,3,4,9-tetrahydro-2,4,9,10-tetraazacyclohepta[def]fluoren-8(1H)-one]",,3.8
"O=C1NN=C2CN(C(=O)C3CC3)Cc3[nH]c4cccc1c4c32 [Compound 47, 2-(cyclopropanecarbonyl)-2,3,4,9-tetrahydro-2,4,9,10-tetraazacyclohepta[def]fluoren-8(1H)-one]",,6.9
"CN(C)CCn1c2c3c4c(cccc41)C(=O)NN=C3CN(C(=O)C1CC1)C2 [Compound 48, 2-(cyclopropanecarbonyl)-4-(2-(dimethylamino)ethyl)-2,3,4,9-tetrahydro-2,4,9,10-tetraazacyclohepta[def]fluoren-8(1H)-one]",,6
"CN(C)CCn1c2c3c4c(cc(F)cc41)C(=O)NN=C3CN(C(=O)C1CC1)C2 [Compound 50, 2-(Cyclopropanecarbonyl)-4-(2-(dimethylamino)ethyl)-6-fluoro-2,3,4,9-tetrahydro-2,4,9,10-tetraazacyclohepta[def]fluoren-8(1H)-one]",,21
"CC(C)(C)C(=O)N1CC2=NNC(=O)c3cccc4[nH]c(c2c34)C1 [Compound 51, 2-Pivaloyl-2,3,4,9-tetrahydro-2,4,9,10-tetraazacyclohepta[def]fluoren-8(1H)-one]",,9.6
"CC(C)(C)C(=O)N1CC2=NNC(=O)c3cc(F)cc4[nH]c(c2c34)C1 [Compound 52, 6-Fluoro-2-pivaloyl-2,3,4,9-tetrahydro-2,4,9,10-tetraazacyclohepta[def]fluoren-8(1H)-one]",,13.5
"O=C1NN=C2CN(C3CCCCC3)Cc3[nH]c4cccc1c4c32 [Compound 53, 2-Cyclohexyl-2,3,4,9-tetrahydro-2,4,9, 10-tetraazacyclohepta[def]fluoren-8(1H)-one]",,20
"CC(C)(C)CCN1CC2=NNC(=O)c3cccc4[nH]c(c2c34)C1 [Compound 54, 2-(3,3-dimethylbutyl)-2,3,4,9-tetrahydro-2,4,9,10-tetraazayclohepta[def]fluoren-8(1H)-one]",,23
"CCCN1CC2=NNC(=O)c3cccc4[nH]c(c2c34)C1 [Compound 56, 2-Propyl-2,3,4,9-tetrahydro-2,4,9,10-tetraazacyclohepta[def]fluoren-8(1H)-one]",,6.4
"CCCCN1CC2=NNC(=O)c3cc(F)cc4[nH]c(c2c34)C1 [Compound 59, 2-Butyl-6-fluoro-2,3,4,9-tetrahydro-2,4,9,10-tetraazacyclohepta[def]fluoren-8(1H)-one]",,2
"CN(C)CCN1CC2=NNC(=O)c3cccc4[nH]c(c2c34)C1 [Compound 60, 2-(2-(dimethylamino)ethyl)-2,3,4,9-tetrahydro-2,4,9,10-tetraazacyclohepta[def]fluoren-8(1H)-one]",,68.5
"CN(C)CCN1CC2=NNC(=O)c3cc(F)cc4[nH]c(c2c34)C1 [Compound 61, 2-(2-(Dimethylamino)ethyl)-6-fluoro-2,3,4,9-tetrahydro-2,4,9,10-tetraazacyclohepta[def]fluoren-8(1H)-one]",,42
"CC(C)(C)OC(=O)N[C@@H](Cc1ccccc1)C(=O)N1CC2=NNC(=O)c3cccc4[nH]c(c2c34)C1 [Compound 63, (S)-tert-butyl (1-oxo-1-(8-oxo-8,9-dihydro-2,4,9,10-tetraazacyclohepta[def]fluoren-2(1H,3H,4H)-yl)-3-phenylpropan-2-yl)carbamate]",,235
"CC1(C)CC2=NNC(=O)c3cccc4c3c2c(n4CCO)C1 [Compound 67, 10-(2-hydroxyethyl)-2,2-dimethyl-2,3,5,10-tetrahydro-[1,2]diazepino[3,4,5,6-def]carbazol-6(1H)-one]",,247
C[C@]12CCCN1CC1=NNC(=O)c3cc(F)cc4[nH]c2c1c34 [Compound 69],,0.6
